Where a name gives a salt, the structure may show the parent alone.
Tests used:
[1] = tested on: lymphocytic leukemia P388/0; assay: Lymphocytic Leukemia P388/0 Test; format: in vivo, mouse (CD2-F1); set-up: LD20: unit: mg/kg; conditions: ip days 1, 5, 9; for LD20: doses on a mg/kg basis; for T/C × 100% (Excluding 30 Day Survivors): median survival time treated/control, at the optimal dose of the compound (Table I), active if ≥120%
Text: (§1) Methods for evaluating the antitumor activity of these compounds are essentially those used in the Tumor Panel by the Developmental Therapeutics Program, Division of Cancer Treatment, National Cancer Institute, A. Goldin, et al., Methods in Cancer Research, Vol. XVI, p.165, Academic Press (1979). Some modifications, in dose level and schedule have been made to increase the testing efficiency.
(§2) CD2-F1 mice, of the same sex, weighing 20±3 g are used for this test. Control and test animals are injected intraperitoneally with a suspension of ~10^6 viable P388/0 tumor cells on day 0. In each test, several dose levels which bracket the LD20 of the compound are evaluated; each dose level group contains six animals. The test compounds are prepared either in physiologic saline containing 0.05% Tween 80 or distilled water containing 5% dextrose and are administered intraperitoneally on days 1, 5, and 9 relative to tumor implant. Doses are on a mg/kg basis according to individual animals' body weights. The day of death for each animal is recorded, the median identified for each group and the ratios of median survival time for treated (T)/control (C) Groups are calculated. The criterion for activity is T/C×100≥120%.

[2] = Lymphocytic Leukemia P388/0 Test; format: in vivo, mouse (CD2-F1); set-up: LD20: unit: mg/kg; conditions: mouse, in vivo; ip days 1, 5, 9; doses on a mg/kg basis; read-out: highest nontoxic dose where the LD20 was not determined (values in parentheses in LD20 column)
Text: as §1, §2

Structure (SMILES) | LD20 [1] | T/C × 100% (Excluding 30 Day Survivors) [1] | MTD [2] [mg/kg]
C[C@H](O)[C@@](C)(CO)NCc1c2ccccc2cc2ccccc12 (relative stereo) [Example 30G, (+-)(2R*,3S*)-2-((9-Anthracenylmethyl)amino)-2-methyl-1,3-butanediol hydrochloride 1/4H2 O] | 180 | +136% | 
CC(CO)(CO)NCc1c2ccccc2c(CCCl)c2ccccc12.Cl [Example 4B, 2-(((10-(2-chloroethyl)-9-anthracenyl)methyl)amino)-2-methyl-1,3-propanediol hydrochloride] |  | +225% | 300
CC(CO)(CO)NCc1c2ccccc2c(Cl)c2c(Cl)cccc12.Cl [Example 5C, 2-(((4,10-dichloro-9-anthracenyl)methyl)amino)-2-methyl-1,3-propanediol hydrochloride] |  | +204% | 300
CC(CO)(CO)NCc1c2ccccc2c(CO)c2ccccc12 [Example 6, 2-(((10-Hydroxymethyl-9-anthracenyl)methyl)amino)-2-methyl-1,3-propanediol hydrochloride 1/4H2 O] | 180 | +170% | 
CC(CO)(CO)NCc1c2ccccc2c(Br)c2ccccc12.Cl [Example 8B, 2-(((10-Bromo-9-anthracenyl)methyl)amino)-2-methyl-1,3-propanediol hydrochloride] |  | +200% | 450
C[S+]([O-])c1c2ccccc2c(CNC(C)(CO)CO)c2ccccc12.Cl (centres unmarked) [Example 12B, 2-Methyl-2-(((10-methylsulfinyl-9-anthracenyl)methyl)amino)-1,3-propanediol hydrochloride] | 55 | +220% | 
CC(CO)(CO)NCc1c2ccccc2c(C#N)c2ccccc12.Cl [Example 14B, 10-((1,1-Bis(hydroxymethyl)ethylamino)methyl)-9-anthracenecarbonitrile hydrochloride] | 387 | +190% | 
CC(CO)(CO)NCc1cccc2cc3ccccc3cc12 [Example 15E, 2-((1-Anthracenylmethyl)amino)-2-methyl-1,3-propanediol hydrochloride] | 7 | +204% | 
CC(CO)(CO)NCc1cccc2c(Br)c3ccccc3cc12.Cl [Example 16C, 2-(((10-Bromo-1-anthracenyl)methyl)amino)-2-methyl-1,3-propanediol hydrochloride] |  | +225% | 300
CC(CO)(CO)NCc1c2ccccc2cc2ccc(Cl)cc12.Cl [Example 17C, 2-(((2-Chloro-9-anthracenyl)methyl)amino)-2-methyl-1,3-propanediol hydrochloride] | 150 | +170% | 
CC(CO)(CO)NCc1c2ccccc2cc2cc(Cl)ccc12 [Example 18, 2-(((3-Chloro-9-anthracenyl)methyl)amino-2-methyl-1,3-propanediol hydrochloride] |  | +181% | 675
CCSc1c2ccccc2c(CNC(C)(CO)CO)c2ccccc12.Cl [Example 19B, 2-(((10-ethylthio-9-anthracenyl)methyl)amino)-2-methyl-1,3-propanediol hydrochloride] | 625 | +145% | 
CC(CO)(CO)NCc1c2ccccc2c(SCCO)c2ccccc12.Cl [Example 20B, 2-(((10-(2-hydroxyethylthio)-9-anthracenyl)methyl)amino)-2-methyl-1,3-propanediol hydrochloride] | 440 | +145% | 
Cl.OCC(CO)(CO)NCc1c2ccccc2c(Cl)c2ccccc12 [Example 21, 2-(((10-Chloro-9-anthracenyl)methyl)amino)-2-hydroxymethyl-1,3-propanediol hydrochloride] | 440 | +140% | 
CC(CO)(CO)NCc1c2ccccc2c(Cl)c2ccc(Cl)cc12.Cl [Example 22C, 2-(((2,10-dichloro-9-anthracenyl)methyl)amino)-2-methyl-1,3-propanediol hydrochloride] |  | +200% | 400
CCOc1c2ccccc2c(CNC(C)(CO)CO)c2ccccc12.Cl [Example 24B, 2-(((10-Ethoxy-9-anthracenyl)methyl)amino)-2-methyl-1,3-propanediol hydrochloride] | 96 | +218% | 
COCCOc1c2ccccc2c(CNC(C)(CO)CO)c2ccccc12 [Example 27B, 2-(((10-(2-Methoxyethoxy)-9-anthracenyl)methyl)amino)-2-methyl-1,3-propanediol hydrochloride 1/4H2 O] | 180 | +260% | 
CC(CO)(CO)NCc1c2ccccc2c(N2CCOCC2)c2ccccc12 [Example 28B, 2-Methyl-2-((((10-N-morpholino)-9-anthracenyl)methyl)amino)-1,3-propanediol methanesulfonate.3/4H2 O] | 225 | +235% | 
CC(C)C(CO)(CO)NCc1c2ccccc2cc2ccccc12 [Example 35C, 2-((9-Anthracenylmethyl)amino)-2-isopropyl-1,3-propanediol methanesulfonate] | 450 | +150% | 
CC(CO)(CCO)NCc1c2ccccc2cc2ccccc12.CS(=O)(=O)O (centres unmarked) [Example 36G, 2-((9-anthracenylmethyl)amino)-2-methyl-1,4-butanediol methanesulfonate] | 120 | +125% | 
CC(CO)(CO)NCc1cccc2c(Cl)c3ccccc3cc12 [Example 37E, 2-(((10-Chloro-1-anthracenyl)methyl)amino)-2-methyl-1,3-propanediol methanesulfonate.9/20 H2 O] | 140 | +145% | 
CC(CO)(CO)NCc1c2ccccc2c(Cl)c2ccc(C(C)(C)C)cc12.Cl [Example 41C, 2-(((2-tert-butyl-10-chloro-9-anthracenyl)methyl)amino)-2-methyl-1,3-propanediol hydrochloride.1/4H2 O] |  | +125% | 
CCCCOc1c2ccccc2c(CNC(C)(CO)CO)c2ccccc12.Cl [Example 44F, 2-(((10-Butoxy-9-anthracenyl)methyl)amino)-2-methyl-1,3-propanediol hydrochloride] | 120 | +120% | 
CCCCc1c2ccccc2c(CNC(C)(CO)CO)c2ccccc12.Cl [Example 45B, 2-(((10-Butyl-9-anthracenyl)methyl)amino)-2-methyl-1,3-propanediol hydrochloride] | 212 | +170% | 

From patent US4803221A, “Anthracene derivatives” (priority 1987, dated 1989)
